# Data taken from patent US20240325402A1, “MOMELOTINIB COMBINATION THERAPY” (GlaxoSmithKline LLC, priority 2021, published 2024).
# Structures can show the parent of a compound that is named as a salt. Where two headings read alike, the source gives them in different places.
# Test system: NF-kB reporter activity
# Assay: NF-kB luciferase reporter assay (TNFa-stimulated NF-kB Reporter-HEK293 cells)
# Type: cell-based, human
# Details: for inhibition at 10 µM / IC50 / Percent Inhibition at 10 uM: NF-kB Reporter-HEK293 cells; for inhibition at 10 µM / Percent Inhibition at 10 uM: compound at 10 uM; for inhibition at 10 µM: read-out: Percent Inhibition at 10 uM
# Description: NF-kB Reporter-HEK293 cell line (BPS Bioscience #60650); MEM medium (Hyclone #SH30024.01); Fetal bovine serum (Life Technologies #10082147); Non-essential amino acid (Corning 25-025-C1); Na-pyruvate (Hyclone #SH30239.01); Pen-strep (Hyclone #SV30010); Hygromycin B (Invitrogen/Thermo-Fisher #10687010); IKK-16 dihydrochloride—NF-kB inhibitor (Sigma SML1138); TNFa (R&D Systems 210-TA); ONE-Step luciferase assay system (BPS Bioscience #60690).
# Cell culture. Cells were cultured in MEM medium with 10% FBS, 1% non-essential amino acid, 1 mM Na-pyruvate, 1% Pen-strep, and 50 μg/mL Hygromycin B.
# To perform the NF-kB luciferase reporter assay, NF-kB Reporter—HEK293 cells were seeded at 30,000 cells per well into white clear-bottom 96-well microplate in 60 μL of assay medium (growth medium without Hygromycin B). Cells were incubated at 37° C. and 5% CO2 for 5 hours to allow them attach. A serial dilution of compounds was prepared in assay medium without Hygromycin B. Thirty μL of diluted compounds was added to the treatment wells at the end of the day. Thirty μL of assay medium with the same concentration of DMSO without compound was added to the control wells. One hundred μL of assay medium with DMSO was added to cell-free control wells for determining background luminescence. Cells were incubated at 37° C. and 5% CO2 overnight.
# The next day ten μL of diluted human TNFa in assay medium was added to wells (final [TNFa]=10 ng/mL). Ten μL of assay medium was added to unstimulated control wells. Cells were incubated at 37° C. and 5% CO2 for 5-6 hours. After treatment, cells were lysed and the luciferase assay was performed using ONE-Step luciferase assay system: add 100 μL of One-Step Luciferase reagent per well and rock at room temperature for ˜30 minutes. Luminescence was measured using a luminometer (BioTek Synergy™ 2 microplate reader).
# [1] = Homo sapiens, TNFa 10 ng/mL, curve fit with top and bottom locked, read-out: IC50 Lock top and bottom of curve
# [2] = Homo sapiens, overnight compound, TNFa 10 ng/mL 5-6 hours, luciferase, read-out: IC50 against NF-kB reporter activity
# [3] = TNFa 10 ng/mL, curve fit with top and bottom locked, read-out: IC50 Lock top and bottom of curve
# [4] = overnight compound, TNFa 10 ng/mL 5-6 hours, luciferase, read-out: IC50 against NF-kB reporter activity
IC50 [1] [nM],IC50 [2] [nM],Compound,"inhibition at 10 µM (Homo sapiens, TNFa 10 ng/mL) [%]",Percent Inhibition at 10 uM (TNFa 10 ng/mL) [%],IC50 [3] [nM],IC50 [4] [nM],"downregulation of NF-κB signaling in a luciferase assay (cellular data, compounds ran in parallel)"
1200,1400,C1=C/COCc2cc(ccc2OCCN2CCCC2)Nc2nccc(n2)-c2cccc(c2)COC/1 [Pacritinib (SB1518)],100,,,,
,,O=C(c1ccc(Nc2nccc(-c3cc4ccccc4s3)n2)cc1)N1CCC(N2CCCC2)CC1 [IKK-16 dihydrochloride],,88,260,330,
,,Cc1cnc(Nc2ccc(OCCN3CCCC3)cc2)nc1Nc1cccc(S(=O)(=O)NC(C)(C)C)c1 [Fedratinib (TG101348)],,99,2900,6100,
,,N#CC[C@H](C1CCCC1)n1cc(-c2ncnc3[nH]ccc23)cn1 [Ruxolitinib (INCB018424)],-11,,,,
540,270,Cc1noc2c1-c1ccccc1C(c1ccc(Cl)cc1)=N[C@H]2CC(N)=O [CPI-0610],78,,,,
430,470,"N#CCNC(=O)c1ccc(-c2ccnc(Nc3ccc(N4CCOCC4)cc3)n2)cc1 [MMB/Momelotinib, N-(cyanomethyl)-4-(2-(4-morpholinophenylamino)pyrimidin-4-yl)benzamide]",100,,,,downregulates NF-κB signaling
